# Strand notation (5' to 3'): a small letter for the sugar, then the base; units joined by * are phosphorothioate-linked, units joined directly phosphodiester-linked; [ ] holds rarer units or linkages, { } end groups; capitals alone tell only the bases. k = constrained ethyl (cEt); [5mC] = 5-methylcytosine; d = 2'-deoxy (DNA)
# Tested on: human SMAD7 mRNA
# Test: Antisense inhibition of human SMAD7 mRNA expression in Hep3B cells by 3-10-3 cEt gapmers, 10,000 nM, electroporation (Example 2)
# Assay type: cell-based
# Details: approximately 24 hours
# In short: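 Hep3B cells (20,000 per well) were electroporated with 10,000 nM 16-mer 3-10-3 cEt gapmer (phosphorothioate, 5-methylcytosine). After about 24 h, SMAD7 mRNA was quantified by qRT-PCR with primer probe set RTS5062, normalised to RIBOGREEN total RNA, and expressed as percent inhibition versus untreated cells.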
# [1] = SMAD7 mRNA, Hep3B cells, electroporation with 10,000 nM antisense oligonucleotide, primer probe set RTS5062, relative to untreated control cells
# [2] = Hep3B cells, electroporation, 10,000 nM antisense oligonucleotide, RTS5062, relative to untreated control cells
# [3] = Hep3B cells, electroporation with 10,000 nM antisense oligonucleotide, SMAD7 mRNA by RT-PCR (RTS5062), relative to untreated control cells
# [4] = Hep3B cells, electroporation with 10,000 nM antisense oligonucleotide, primer probe set RTS5062, relative to untreated control cells
# [5] = Hep3B cells, 10,000 nM antisense oligonucleotide, electroporation, RT-PCR primer probe set RTS5062, relative to untreated control cells
# [6] = Hep3B cells, electroporation with 10,000 nM antisense oligonucleotide, RTS5062, percent inhibition of SMAD7 mRNA relative to untreated control cells
substance,measurement,setting,value
829934 (kT*kA*kG*dG*dT*dG*dA*dT*dA*dA*d[5mC]*dA*d[5mC]*k[5mC]*k[5mC]*kA; antisense) [compound 829934],% Inhibition,[1],26%
799536 (kA*k[5mC]*k[5mC]*dG*dA*dT*dG*d[5mC]*dA*dT*d[5mC]*d[5mC]*dA*kA*k[5mC]*kT; antisense) [compound 799536],% inhibition of SMAD7 mRNA expression,[2],50%
798678 (antisense k[5mC]*kG*k[5mC]*dA*d[5mC]*dA*d[5mC]*d[5mC]*dA*dT*dG*dA*dA*kG*kA*kA) [compound 798678],% Inhibition,[3],45%
799271 (antisense k[5mC]*kT*k[5mC]*dG*dA*dG*dT*d[5mC]*dA*dG*dG*d[5mC]*dT*k[5mC]*kA*kA) [compound 799271],% inhibition of SMAD7 mRNA expression,[2],60%
798679 (antisense k[5mC]*kT*k[5mC]*d[5mC]*dG*d[5mC]*dA*d[5mC]*dA*d[5mC]*d[5mC]*dA*dT*kG*kA*kA) [compound 798679],% Inhibition,[3],32%
798684 (antisense k[5mC]*kG*kT*dT*dT*dG*d[5mC]*d[5mC]*dT*dG*d[5mC]*dT*dA*kA*kG*kG) [compound 798684],% Inhibition,[3],51%
799084 (antisense k[5mC]*kT*kT*dG*dG*dG*dA*dA*dG*d[5mC]*d[5mC]*d[5mC]*dA*kT*k[5mC]*kT) [compound 799084],% inhibition of SMAD7 mRNA expression,[4],0%
799615 (kG*kG*kA*dG*dA*dG*dG*dA*d[5mC]*d[5mC]*dG*dG*d[5mC]*k[5mC]*kT*kT; antisense) [compound 799615],% inhibition of SMAD7 mRNA expression,[2],24%
829866 (antisense kG*kT*kG*dG*d[5mC]*dG*dG*dA*d[5mC]*dT*dT*dG*dA*kT*kG*kA) [compound 829866],% Inhibition,[1],10%
799456 (antisense kT*k[5mC]*k[5mC]*dT*dA*dA*dG*dT*dA*d[5mC]*dT*dG*dT*kT*kA*kA) [compound 799456],% inhibition of SMAD7 mRNA expression,[4],0%
800078 (antisense kA*k[5mC]*k[5mC]*dT*dT*dA*dA*d[5mC]*dA*dA*dA*dG*d[5mC]*kT*kT*k[5mC]) [compound 800078],% Inhibition,[5],51%
830190 (antisense kT*kA*kA*dT*d[5mC]*dA*dG*dA*dT*dG*d[5mC]*d[5mC]*dT*kG*k[5mC]*kT) [compound 830190],% Inhibition,[3],39%
799129 (antisense k[5mC]*k[5mC]*kT*d[5mC]*d[5mC]*d[5mC]*dA*dG*dG*dG*dA*d[5mC]*dA*kT*k[5mC]*k[5mC]) [compound 799129],% inhibition of SMAD7 mRNA expression,[4],37%
798728 (antisense k[5mC]*kT*kT*dT*dG*dG*d[5mC]*dA*d[5mC]*d[5mC]*dT*d[5mC]*dG*k[5mC]*kA*k[5mC]) [compound 798728],% inhibition of SMAD7 mRNA expression,[4],41%
798770 (kA*kG*kG*dA*dA*dT*dG*d[5mC]*d[5mC]*dT*dG*dA*dG*kA*kT*k[5mC]; antisense) [compound 798770],% Inhibition,[3],47%
800105 (antisense kT*k[5mC]*k[5mC]*dT*dA*dG*dA*dA*dT*dG*dA*dA*dG*kA*k[5mC]*kA) [compound 800105],% Inhibition,[3],17%
772929 (k[5mC]*kG*kG*dA*dA*dG*dT*d[5mC]*dT*dT*dG*dT*dA*kT*kT*kT; antisense) [compound 772929],% Inhibition,"SMAD7 mRNA, Hep3B cells, 10,000 nM antisense oligonucleotide, electroporation, primer probe set RTS5062, relative to untreated control cells",37%
799096 (antisense kA*kA*k[5mC]*d[5mC]*dT*dG*dA*dT*dG*dT*d[5mC]*dA*d[5mC]*k[5mC]*kA*kG) [compound 799096],% Inhibition,[4],30%
790719 (kG*kG*kA*d[5mC]*dA*dG*dT*d[5mC]*dT*dG*d[5mC]*dT*dG*kT*kG*kG; antisense) [compound 790719],% inhibition of SMAD7 mRNA expression,[2],86%
798818 (kT*kA*kT*dG*d[5mC]*d[5mC]*dA*d[5mC]*d[5mC]*dA*d[5mC]*dG*d[5mC]*kA*k[5mC]*k[5mC]; antisense) [compound 798818],% Inhibition,[3],63%
772587 (kA*kT*k[5mC]*d[5mC]*d[5mC]*d[5mC]*dA*dG*dG*d[5mC]*dT*d[5mC]*d[5mC]*kA*kG*kA; antisense) [compound 772587],% Inhibition,[3],39%
798834 (kA*kA*kA*dA*dG*d[5mC]*d[5mC]*dA*dT*dT*d[5mC]*d[5mC]*d[5mC]*k[5mC]*kT*kG; antisense) [compound 798834],% Inhibition,[3],55%
830007 (antisense k[5mC]*kT*kA*d[5mC]*dT*d[5mC]*dA*d[5mC]*d[5mC]*dA*dG*dT*dT*kG*kG*kT) [compound 830007],% Inhibition,[1],0%
799222 (k[5mC]*kT*kT*dT*dT*dT*dT*dA*dA*dT*dT*dT*dG*kG*k[5mC]*kA; antisense) [compound 799222],% Inhibition,[4],0%
799399 (antisense kT*k[5mC]*k[5mC]*dA*dA*dA*dT*dT*dT*dG*dA*dA*dG*kA*kA*kT) [compound 799399],% inhibition of SMAD7 mRNA expression,[4],0%
798689 (antisense kG*k[5mC]*k[5mC]*dG*dG*dA*d[5mC]*dG*dA*dG*d[5mC]*dG*d[5mC]*kA*kG*kA) [compound 798689],% inhibition of SMAD7 mRNA expression,[4],33%
799379 (antisense kT*kT*kT*dG*dA*dT*dA*dG*dT*d[5mC]*d[5mC]*d[5mC]*dT*kA*kT*kG) [compound 799379],% inhibition of SMAD7 mRNA expression,[4],0%
830117 (k[5mC]*k[5mC]*kA*d[5mC]*d[5mC]*d[5mC]*dT*dA*dA*dA*d[5mC]*dT*dG*kA*kG*k[5mC]; antisense) [compound 830117],% Inhibition,[3],5%
799792 (kA*k[5mC]*k[5mC]*dA*dA*dA*dA*d[5mC]*d[5mC]*d[5mC]*dG*dG*dG*kA*kG*kA; antisense) [compound 799792],% inhibition of SMAD7 mRNA expression,[2],31%
799600 (kG*k[5mC]*kA*d[5mC]*d[5mC]*dA*dA*d[5mC]*dT*d[5mC]*dT*dG*dA*kA*k[5mC]*kG; antisense) [compound 799600],% inhibition of SMAD7 mRNA expression,[2],63%
830126 (antisense k[5mC]*kT*k[5mC]*d[5mC]*dG*dA*dG*dG*d[5mC]*dA*d[5mC]*d[5mC]*dA*k[5mC]*kA*kT) [compound 830126],% Inhibition,[3],34%
798660 (kT*kG*k[5mC]*d[5mC]*d[5mC]*d[5mC]*dA*d[5mC]*d[5mC]*d[5mC]*d[5mC]*dG*d[5mC]*kG*k[5mC]*kG; antisense) [compound 798660],% inhibition of SMAD7 mRNA expression,[4],38%
799908 (antisense k[5mC]*kA*kT*dA*dA*dT*dA*dT*dT*dG*dA*d[5mC]*dA*kG*kT*kA) [compound 799908],% Inhibition,[3],41%
799757 (antisense k[5mC]*k[5mC]*kG*dT*dT*dA*d[5mC]*dT*dG*dG*dA*d[5mC]*dA*k[5mC]*kA*kG) [compound 799757],% inhibition of SMAD7 mRNA expression,[2],41%
798748 (antisense k[5mC]*kT*k[5mC]*d[5mC]*dA*d[5mC]*dG*dG*d[5mC]*d[5mC]*dT*dG*dG*kA*kG*k[5mC]) [compound 798748],% inhibition of SMAD7 mRNA expression,[4],58%
830185 (antisense kG*k[5mC]*k[5mC]*dA*d[5mC]*d[5mC]*dA*dA*d[5mC]*dG*dG*dT*dT*kG*k[5mC]*k[5mC]) [compound 830185],% Inhibition,[3],27%
799959 (antisense kA*kG*k[5mC]*dT*dT*dG*dT*dG*dG*dA*dG*dA*dG*kT*kG*k[5mC]) [compound 799959],% Inhibition,[5],1%
830192 (antisense kA*k[5mC]*kT*dA*dA*dT*d[5mC]*dA*dG*dA*dT*dG*d[5mC]*k[5mC]*kT*kG) [compound 830192],% Inhibition,[3],41%
798819 (kT*k[5mC]*k[5mC]*d[5mC]*dA*dG*dT*dA*dT*dG*d[5mC]*d[5mC]*dA*k[5mC]*k[5mC]*kA; antisense) [compound 798819],% Inhibition,[5],0%
799256 (antisense k[5mC]*k[5mC]*kA*dA*dA*dA*d[5mC]*dT*d[5mC]*d[5mC]*dA*dA*dA*kG*kG*kT) [compound 799256],% Inhibition,[3],0%
799710 (antisense kG*kT*k[5mC]*dA*dA*dA*d[5mC]*dT*dT*dG*dT*dG*dG*kT*kA*kA) [compound 799710],% Inhibition,[6],48%
830036 (antisense kT*kA*kT*dT*dG*dG*d[5mC]*dT*dG*dA*dT*d[5mC]*dT*kG*kG*kA) [compound 830036],% Inhibition,[3],52%
799562 (kG*kA*kA*dG*dA*dG*dG*dA*dG*dA*dG*d[5mC]*d[5mC]*kG*kG*kG; antisense) [compound 799562],% inhibition of SMAD7 mRNA expression,[2],39%
829902 (antisense k[5mC]*kA*kG*d[5mC]*dA*d[5mC]*dG*dG*dG*d[5mC]*dA*dG*d[5mC]*kT*kG*k[5mC]) [compound 829902],% Inhibition,[1],0%
799687 (antisense kG*kG*k[5mC]*dA*dG*d[5mC]*dA*dG*dA*d[5mC]*d[5mC]*dA*dT*k[5mC]*kT*kT) [compound 799687],% Inhibition,[6],35%
798938 (antisense kA*k[5mC]*k[5mC]*dA*dA*dA*dG*dA*dG*dT*dT*dT*dG*k[5mC]*kA*kT) [compound 798938],% Inhibition,[4],15%
